Earlier results as cited in patent US20090202609A1, “MEDICAL DEVICE WITH COATING COMPOSITION” (priority 2008, published 2009).

Tests used:
[1] = systemic
bacteria = settings: effective systemic concentration

NC[C@H]1O[C@H](O[C@H]2[C@H](O)[C@@H](O[C@H]3O[C@H](CO)[C@@H](O)[C@H](N)[C@H]3O)[C@H](N)C[C@@H]2N)[C@H](N)C[C@@H]1O [tobramycin]
system-wide toxic concentration [1]: about 400 mcg/ml
effective concentration to actively control bacteria (bacteria): ≤ 4 µg/mL
